Reference: the CheMixHub viscosity set

Test: xn = mol fraction of the nth substance listed

O=C1CCCC1 + Nc1cccc(Cl)c1
viscosity [mPa·s], 100 kPa
Settings | x2 = 0.0805 | x2 = 0.1814 | x2 = 0.2804 | x2 = 0.3815 | x2 = 0.4998 | x2 = 0.5995 | x2 = 0.6995 | x2 = 0.7875 | x2 = 0.9071
303.15 K | 1.111 | 1.291 | 1.493 | 1.731 | 2.058 | 2.379 | 2.752 | 3.127 | 3.719
308.15 K | 1.047 | 1.211 | 1.395 | 1.611 | 1.903 | 2.19 | 2.521 | 2.852 | 3.373
313.15 K | 0.9683 | 1.117 | 1.282 | 1.474 | 1.734 | 1.987 | 2.278 | 2.568 | 3.023
318.15 K | 0.9063 | 1.039 | 1.185 | 1.354 | 1.58 | 1.799 | 2.049 | 2.296 | 2.681

NC1CCCCC1 + CCCCOC(C)=O
298.15 K, 101 kPa
Settings | viscosity [mPa·s]
x1 = 0.1151 | 0.6149
x1 = 0.2265 | 0.6836
x1 = 0.3342 | 0.8301
x1 = 0.4385 | 1.032
x1 = 0.5394 | 1.253
x1 = 0.6373 | 1.455
x1 = 0.7321 | 1.618
x1 = 0.8241 | 1.734
x1 = 0.9134 | 1.779

CC(O)CO (stereo not drawn) + CCCCCCO
101 kPa
Settings | viscosity [mPa·s]
303.15 K, x2 = 0.6309 | 6.725
308.15 K, x2 = 0.0771 | 20.05

O=C1CCCC1 + CNC=O
viscosity [mPa·s], 101 kPa
Settings | x2 = 0.0865 | x2 = 0.1756 | x2 = 0.2675 | x2 = 0.3623 | x2 = 0.4601 | x2 = 0.5611 | x2 = 0.6654 | x2 = 0.7732 | x2 = 0.8847
303.15 K | 1.041 | 1.104 | 1.165 | 1.226 | 1.293 | 1.355 | 1.412 | 1.467 | 1.532
308.15 K | 0.9797 | 1.035 | 1.09 | 1.144 | 1.204 | 1.258 | 1.309 | 1.358 | 1.414
313.15 K | 0.9075 | 0.9589 | 1.01 | 1.059 | 1.114 | 1.164 | 1.21 | 1.255 | 1.307
318.15 K | 0.8512 | 0.8981 | 0.9442 | 0.9895 | 1.039 | 1.085 | 1.127 | 1.167 | 1.215

ClC=C(Cl)Cl + CCC(C)=O
viscosity [mPa·s], 101.33 kPa
Settings | x1 = 0.1037 | x1 = 0.1997 | x1 = 0.3082 | x1 = 0.3915 | x1 = 0.4564 | x1 = 0.5979 | x1 = 0.7166 | x1 = 0.7989 | x1 = 0.891
298.15 K | – | 0.507 | – | – | 0.557 | 0.592 | 0.612 | 0.622 | 0.63
308.15 K | 0.447 | 0.467 | 0.491 | 0.506 | 0.518 | 0.543 | 0.559 | 0.564 | 0.575
318.15 K | 0.413 | 0.434 | 0.456 | 0.471 | 0.481 | 0.504 | 0.521 | 0.531 | 0.541

CC(O)CO (stereo not drawn) + CC(=O)N(C)C
viscosity [mPa·s], 101 kPa
Settings | x2 = 0.0807 | x2 = 0.0999 | x2 = 0.2 | x2 = 0.2994 | x2 = 0.4014 | x2 = 0.4996 | x2 = 0.6 | x2 = 0.6954 | x2 = 0.7937 | x2 = 0.8997
293.15 K | 36.91 | 33.19 | 19.06 | 11.57 | 7.324 | 4.919 | 3.403 | 2.466 | 1.827 | 1.349
303.15 K | 21.61 | 19.64 | 12.06 | 7.768 | 5.202 | 3.659 | 2.637 | 1.987 | 1.512 | 1.151
313.15 K | 13.49 | 12.39 | 8.071 | 5.477 | 3.845 | 2.819 | 2.108 | 1.634 | 1.277 | 1
323.15 K | 8.96 | 8.317 | 5.673 | 4.023 | 2.939 | 2.229 | 1.718 | 1.368 | 1.097 | 0.879

CC(O)CO (stereo not drawn) + CC(C)=O
viscosity [mPa·s], 100 kPa
Settings | x2 = 0.1 | x2 = 0.2 | x2 = 0.2998 | x2 = 0.3999 | x2 = 0.5004 | x2 = 0.5999 | x2 = 0.6999 | x2 = 0.8 | x2 = 0.9001
293.15 K | 29.94 | 14.46 | 7.145 | 3.875 | 2.363 | 1.532 | 0.934 | 0.601 | 0.4671
298.15 K | 22.95 | 11.54 | 5.918 | 3.303 | 2.066 | 1.356 | 0.8597 | 0.5688 | 0.4463
303.15 K | 17.9 | 9.34 | 4.965 | 2.882 | 1.821 | 1.201 | 0.7943 | 0.5379 | 0.4209
308.15 K | 14.19 | 7.662 | 4.208 | 2.55 | 1.614 | 1.103 | 0.7356 | 0.5208 | 0.3953
313.15 K | 11.41 | 6.362 | 3.602 | 2.189 | 1.44 | 0.9924 | 0.6822 | 0.4945 | 0.377
318.15 K | 9.297 | 5.341 | 3.109 | 1.971 | 1.298 | 0.8944 | 0.6317 | 0.4731 | 0.3691
323.15 K | 7.672 | 4.529 | 2.71 | 1.717 | 1.175 | 0.815 | 0.5813 | 0.4533 | 0.3477

ClC=C(Cl)Cl + C1CCOC1
303.15 K, 101 kPa
Settings | viscosity [mPa·s]
x2 = 0.0614 | 0.5484
x2 = 0.1057 | 0.5631
x2 = 0.2281 | 0.5879
x2 = 0.3529 | 0.5932
x2 = 0.4929 | 0.5817
x2 = 0.5166 | 0.5781
x2 = 0.64 | 0.556
x2 = 0.7608 | 0.5289
x2 = 0.8813 | 0.4983
x2 = 0.9421 | 0.4822

CC(C)Br + CCO
viscosity [mPa·s], 101 kPa
Settings | x1 = 0.1 | x1 = 0.2 | x1 = 0.3 | x1 = 0.4 | x1 = 0.5 | x1 = 0.6 | x1 = 0.7 | x1 = 0.8 | x1 = 0.9
298.15 K | 0.9584 | 0.8399 | 0.7419 | 0.6681 | 0.601 | 0.546 | 0.505 | 0.4811 | 0.4782
303.15 K | 0.8856 | 0.7784 | 0.6899 | 0.6233 | 0.5616 | 0.5172 | 0.4819 | 0.4653 | 0.4647
308.15 K | 0.8081 | 0.711 | 0.6407 | 0.5773 | 0.5251 | 0.4875 | 0.4624 | 0.4474 | 0.4513
313.15 K | 0.7913 | 0.7008 | 0.6327 | 0.5668 | 0.5161 | 0.4739 | 0.4489 | 0.4352 | 0.4285
318.15 K | 0.7206 | 0.644 | 0.5803 | 0.5262 | 0.4829 | 0.4499 | 0.4268 | 0.4152 | 0.4137

NC1CCCCC1 + C1COCO1
298.15 K, 101 kPa
Settings | viscosity [mPa·s]
x2 = 0.1295 | 1.517
x2 = 0.2508 | 1.331
x2 = 0.3646 | 1.174
x2 = 0.4716 | 1.044
x2 = 0.5724 | 0.9345
x2 = 0.6676 | 0.8431
x2 = 0.7575 | 0.7633
x2 = 0.8427 | 0.6955
x2 = 0.9234 | 0.6344

ClC=C(Cl)Cl + ClC(Cl)Cl
303.15 K, 101.33 kPa
Settings | viscosity [mPa·s]
x1 = 0.1451 | 0.517
x1 = 0.2431 | 0.521
x1 = 0.3368 | 0.521
x1 = 0.4687 | 0.521
x1 = 0.5793 | 0.519
x1 = 0.6718 | 0.519
x1 = 0.7912 | 0.519
x1 = 0.868 | 0.518
x1 = 0.9526 | 0.518

CC(O)CO (stereo not drawn) + CO
viscosity [mPa·s], 101 kPa
Settings | x1 = 0.1 | x1 = 0.2 | x1 = 0.3 | x1 = 0.4 | x1 = 0.5 | x1 = 0.6 | x1 = 0.7 | x1 = 0.8 | x1 = 0.9
298.15 K | 0.8967 | 1.436 | 2.244 | 3.432 | 5.254 | 7.972 | 12.13 | 18.51 | 28.39
308.15 K | 0.7629 | 1.187 | 1.814 | 2.731 | 4.083 | 6.016 | 8.726 | 12.53 | 17.88
318.15 K | 0.6278 | 0.9689 | 1.457 | 2.129 | 3.054 | 4.33 | 6.037 | 8.242 | 11.2

C1COCCN1 + O
293.15 K, 101 kPa
Settings | viscosity [mPa·s]
x1 = 0.01898 | 1.327
x1 = 0.04739 | 1.963
x1 = 0.08285 | 3.082
x1 = 0.1083 | 4.064
x1 = 0.1739 | 7.227
x1 = 0.2362 | 10.22
x1 = 0.2817 | 11.61
x1 = 0.3018 | 11.87
x1 = 0.3247 | 12.17
x1 = 0.3476 | 12.13
x1 = 0.3543 | 12.09
x1 = 0.4548 | 10.43
x1 = 0.68 | 5.954

ClC=C(Cl)Cl + CC(C)CO
viscosity [mPa·s]
Settings | 293.15 K | 303.15 K | 313.15 K
101.3 kPa, x1 = 0.1086 | – | 2.134 | –
101.3 kPa, x1 = 0.2127 | – | 1.627 | –
101.3 kPa, x1 = 0.3178 | – | 1.273 | –
101.3 kPa, x1 = 0.4018 | – | 1.075 | –
101.3 kPa, x1 = 0.5178 | – | 0.889 | –
101.3 kPa, x1 = 0.6042 | – | 0.795 | –
101.3 kPa, x1 = 0.7191 | – | 0.703 | –
101.3 kPa, x1 = 0.8127 | – | 0.644 | –
101.3 kPa, x1 = 0.9144 | – | 0.581 | –
101.33 kPa, x2 = 0.15 | 0.8993 | 0.7678 | 0.6502
101.33 kPa, x2 = 0.3 | 1.228 | 1.005 | 0.8284
101.33 kPa, x2 = 0.45 | 1.556 | 1.242 | 1.007
101.33 kPa, x2 = 0.6 | 1.884 | 1.478 | 1.185
101.33 kPa, x2 = 0.75 | 2.213 | 1.715 | 1.365
101.33 kPa, x2 = 0.9 | 2.541 | 1.952 | 1.542

Cc1ccccn1 + Brc1ccccc1
viscosity [mPa·s], 101 kPa
Settings | x1 = 0.2 | x1 = 0.4 | x1 = 0.6 | x1 = 0.8
293.15 K | 1.072 | 1.016 | 0.954 | 0.885
313.15 K | 0.833 | 0.785 | 0.736 | 0.684
